Results on three compounds are retold here after article PMC8443597, “A prostate-specific membrane antigen activated molecular rotor for real-time fluorescence imaging” (Nature Communications, 2021).

The target in assay [1] is T1, prostate-specific membrane antigen (PSMA) (Homo sapiens, UniProt Q04609).
T1 construct: gene FOLH1; extracellular domain of human PSMA (rhPSMA; amino acids 44–750)
The assay can be described thus: fluorescence saturation binding ([…]) with rhPSMA; IC50 from […]H-NAAG radioenzymatic assay. The class given is biochemical.

Assay [2] addresses T1, prostate-specific membrane antigen (PSMA). The assay can be described thus: X-ray crystal structure ([…] Å); fluorescence saturation binding; IC50 from […]H-NAAG radioenzymatic assay. The class given is biochemical.

T1 sequence (Q04609 44-750): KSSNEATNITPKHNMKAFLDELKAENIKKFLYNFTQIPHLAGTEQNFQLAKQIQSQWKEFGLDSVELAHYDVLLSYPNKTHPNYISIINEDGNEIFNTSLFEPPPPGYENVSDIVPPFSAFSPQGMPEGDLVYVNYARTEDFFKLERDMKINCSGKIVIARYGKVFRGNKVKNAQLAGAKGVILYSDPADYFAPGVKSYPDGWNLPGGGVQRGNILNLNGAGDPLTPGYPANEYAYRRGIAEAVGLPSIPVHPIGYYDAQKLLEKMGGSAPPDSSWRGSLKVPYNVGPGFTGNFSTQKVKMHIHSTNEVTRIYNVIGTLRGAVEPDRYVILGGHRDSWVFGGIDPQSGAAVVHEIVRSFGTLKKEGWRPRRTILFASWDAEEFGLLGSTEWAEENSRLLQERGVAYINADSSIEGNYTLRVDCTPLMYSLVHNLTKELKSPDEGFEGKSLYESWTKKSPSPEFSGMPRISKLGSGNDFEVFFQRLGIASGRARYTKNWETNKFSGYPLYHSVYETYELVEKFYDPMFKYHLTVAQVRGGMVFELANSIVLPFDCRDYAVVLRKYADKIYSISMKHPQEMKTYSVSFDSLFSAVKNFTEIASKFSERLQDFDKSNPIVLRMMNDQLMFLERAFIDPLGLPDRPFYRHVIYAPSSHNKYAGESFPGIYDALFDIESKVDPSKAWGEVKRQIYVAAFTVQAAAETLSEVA

By IC50 is commonly meant the concentration needed to halve the response being measured. Higher therefore signals a need for much substance. In assay [1], `COC(=O)CCN1CCCc2cc(C=C(C#N)C(=O)NCCCC[C@H](NC(=O)N[C@@H](CNC(=O)C(=O)O)C(=O)O)C(=O)O)ccc21` [ODAP-436, (4 S,8 S)-15-cyano-16-(1-(3-methoxy-3-oxopropyl)-1,2,3,4-tetrahydroquinolin-6-yl)-1,6,14-trioxo-2,5,7,13-tetraazahexadec-15-ene-1,4,8-tricarboxylic acid] yielded an IC50 of 0.118 nM.
On to `COC(=O)CCN1CCCc2cc(-c3ccc(C=C(C#N)C(=O)NCCCC[C@H](NC(=O)N[C@@H](CCC(=O)O)C(=O)O)C(=O)O)s3)ccc21` [Glu-490, (((S)-1-carboxy-5-(2-cyano-3-(5-(1-(3-methoxy-3-oxopropyl)-1,2,3,4-tetrahydroquinolin-6-yl)thiophen-2-yl)acrylamido)pentyl)carbamoyl)-L-glutamic acid], for which, in assay [2], the IC50 turned out to be 0.0631 nM.
`COC(=O)CCN1CCCc2cc(-c3ccc(C=C(C#N)C(=O)NCCCC[C@H](NC(=O)N[C@@H](CNC(=O)C(=O)O)C(=O)O)C(=O)O)s3)ccc21` [ODAP-490, (4 S,8 S)-15-cyano-16-(5-(1-(3-methoxy-3-oxopropyl)-1,2,3,4-tetrahydroquinolin-6-yl)thiophen-2-yl)-1,6,14-trioxo-2,5,7,13-tetraazahexadec-15-ene-1,4,8-tricarboxylic acid] showed an IC50 in assay [1] of 0.0996 nM.
